According to paper PMC10375898 (2023):

What was measured:
[1] = tested on: 5'-(GACAGCUGCUGUC)2-3' duplex (single 5'CUG/3'GUC) (RNA, mismatch bulge abasic) GACAGCUGCUGUC; assay: fluorescence titration; conditions: Na+ 200 mM NaCl; 8 mM NaH2PO4, pH 7.0, 1 mM EDTA, 40 µg/mL BSA, room temperature; 100 nM dye
[2] = tested on: r(CUG)8 with GAAA hairpin loop (RNA, repeat) CCGCUGCUGCUGCUGCGAAAGCUGCUGCUGCUGCGG; assay: in vitro Chem-CLIP (photo-cross-linking pull-down); conditions: covalent; 100 μM
[3] = tested on: 5'-(GACAGCUGCUGUC)2-3' duplex (single 5'CUG/3'GUC) (RNA, mismatch bulge abasic) GACAGCUGCUGUC; assay: To-Pro-1 dye displacement (fluorescence); conditions: Na+ 200 mM NaCl, 8 mM NaH2PO4; To-Pro-1 (100 nM) displaced; Kd from competitive fit (Ki)
[4] = tested on: r(CUG)10 (RNA, repeat) CUGCUGCUGCUGCUGCUGCUGCUGCUGCUG; assay: in vitro Chem-CLIP (photo-cross-linking pull-down); conditions: covalent; 26 ± 7% pulled down at 100 μM
[5] = tested on: 5'-(GACAGCUGCUGUC)2-3' duplex (single 5'CUG/3'GUC) (RNA, mismatch bulge abasic) GACAGCUGCUGUC; assay: NMR (WaterLOGSY, 1D 1H imino and aromatic); conditions: 10 mM Na2HPO4/NaH2PO4, pH 6.0, 0.05 mM EDTA
[6] = tested on: r(CUG)10 (RNA, repeat) CUGCUGCUGCUGCUGCUGCUGCUGCUGCUG; assay: competitive Chem-CLIP; conditions: competes with 50 μM of 1; 0 to 500 μM

C[n+]1c(C=C2C=CN(CCC[N+](C)(C)C)c3ccccc32)sc2ccccc21
Kd [1]: 31 ± 2 nM

C#CCCC1(CCC(=O)NC2=Nc3cccc4cccc(c34)N2)N=N1
binding [2]: yes
Kd [3]: 1200 ± 200 nM
binding [4]: yes

CCC(=O)NC1=Nc2cccc3cccc(c23)N1
binding [5]: yes
Kd [3]: 1400 ± 300 nM
binding [6]: yes
